In patent EP4775208A1, “USE OF PRMT5 INHIBITOR IN TREATMENT OF TUMORS OR CANCERS” (Apeiron Therapeutics (Hong Kong) Ltd., priority 2023, dated 2025):
Values joined by “and” are separate entries in the source; they are usually repeats but may differ in a detail not shown here. Identical values can stand only once. Like-named read-outs stand apart in the source and are kept apart here.

Assay: Mouse brain penetration pharmacokinetics study (plasma and brain)
Type: in vivo, ICR male mice
Description: IV. Mouse Brain Penetration Pharmacokinetics Study
The test compounds used in this study were the compounds described in the specific examples of the present disclosure.
ICR male mice, N=3/group; sourced from Zhejiang Vital River Laboratory Animal Technology Co., Ltd.
3. Drug Preparation and Administration
Single oral (PO) administration to ICR mice: Compounds were dissolved in dimethyl sulfoxide, added to polyethylene glycol 400 and sterile water, and then adjusted to a clear solution with a small amount of 1 mol/L hydrochloric acid. After overnight fasting, the mice were orally gavaged with a dose of 30 mg/kg or 100 mg/kg.
Blood Collection and Processing: Mice were anesthetized with 5% isoflurane for 3-4 minutes until loss of consciousness. Whole blood (500 µL per time point) was collected via cardiac puncture using dipotassium EDTA (K2EDTA) as the anticoagulant. Plasma was separated by centrifugation ([…] for 5 minutes at 4°C). […] The samples were stored at -80°C.
Brain Tissue Collection: Following complete exsanguination, the thoracic cavity was opened with scissors. The right atrium was incised, and a needle was inserted into the left ventricle. Transcardial perfusion was performed with physiological saline (approximately 10 mL). Upon completion of perfusion, the skull was opened, and brain tissues were harvested and stored at -80°C.
Sample Preparation: A 30 µL plasma aliquot (consisting of 10 µL study sample and 20 µL blank plasma) was mixed with 200 µL of ice-cold acetonitrile containing an internal standard (IS). The mixture was vortexed for 30 seconds and then centrifuged at 4,000 g/min for 20 minutes. A 100 µL aliquot of the supernatant was transferred to a 96-well plate and mixed with 200 µL of ultrapure water. After vortexing for 30 seconds, a volume of 5 µL or 10 µL was injected into the LC-MS/MS system for analysis.
Brain Homogenate Preparation: Brain tissue samples were weighed and homogenized in phosphate-buffered saline (PBS) at a 1:4 ratio (tissue weight [g] to PBS volume [mL]). A 30 µL aliquot of brain homogenate (consisting of 10 µL study sample and 20 µL blank brain homogenate) was mixed with 200 µL of ice-cold acetonitrile containing an internal standard. The mixture was vortexed for 30 seconds and centrifuged at 4,000 g/min for 20 minutes. A 100 µL aliquot of the supernatant was transferred to a 96-well plate and mixed with 200 µL of ultrapure water. After vortexing for 30 seconds, a volume of 2 µL or 10 µL was injected into the LC-MS/MS system for analysis. Table 9: PK data

[1] = ICR male mice, PO(30mg/kg), sampling time 4 h, individual animals, 30 mg/kg
[2] = ICR male mice, PO(30mg/kg), sampling time 8 h, individual animals, 30 mg/kg
[3] = ICR male mice, PO(30mg/kg), sampling time 12 h, individual animals, 30 mg/kg
[4] = ICR male mice, PO(30mg/kg), sampling time 24 h, individual animals, 30 mg/kg
[5] = ICR male mice, PO(30mg/kg), sampling time 36 h, individual animals, 30 mg/kg
[6] = ICR male mice, PO(100mg/kg), sampling time 2 h, individual animals, 100 mg/kg
[7] = ICR male mice, PO(100mg/kg), sampling time 4 h, individual animals, 100 mg/kg
[8] = ICR male mice, PO(100mg/kg), sampling time 8 h, individual animals, 100 mg/kg
[9] = ICR male mice, PO(100mg/kg), sampling time 24 h, individual animals, 100 mg/kg

Structure (SMILES): CN(C(=O)c1ccc2nc(N)c3cncn3c2c1)[C@@H]1COc2cc(C(F)(F)F)ccc21 [Example 107, (S)-4-amino-N-methy 1-N-(6-(trifluoromethy 1)-2,3-dihydrobenzofuran-3-yl)imidazo[1,5-a]quinoxaline-8-carboxamide]
- B/P ratio [1]: 0.122 and 0.152
- Brain concentration [1]: 885 ng/g and 1290 ng/g and 1780 ng/g
- Plasma concentration [1]: 10600 ng/mL and 11700 ng/mL
- B/P ratio [2]: 0.227 and 0.305
- Brain concentration [2]: 1700 ng/g and 2080 ng/g
- Plasma concentration [2]: 7500 ng/mL and 6810 ng/mL
- B/P ratio [3]: 0.435 and 0.320
- Brain concentration [3]: 1040 ng/g and 855 ng/g
- Plasma concentration [3]: 2390 ng/mL and 2670 ng/mL
- B/P ratio [4]: 0.186 and 0.225
- Brain concentration [4]: 47.6 ng/g and 65.0 ng/g and 142 ng/g
- Plasma concentration [4]: 201 ng/mL and 349 ng/mL and 631 ng/mL
- B/P ratio [5]: 0.653 and 0.705
- Brain concentration [5]: 25.0 ng/g and 19.1 ng/g
- Plasma concentration [5]: 38.3 ng/mL and 27.1 ng/mL
- B/P ratio [6]: 0.114 and 0.195
- Brain concentration [6]: 6650 ng/g and 4740 ng/g and 10800 ng/g
- Plasma concentration [6]: 41500 ng/mL and 55400 ng/mL
- B/P ratio [7]: 0.143 and 0.168
- Brain concentration [7]: 4560 ng/g and 6100 ng/g
- Plasma concentration [7]: 32000 ng/mL and 36400 ng/mL
- B/P ratio [8]: 0.151 and 0.142
- Brain concentration [8]: 1455 ng/g and 2480 ng/g
- Plasma concentration [8]: 9620 ng/mL and 17500 ng/mL
- B/P ratio [9]: 0.278 and 0.222
- Brain concentration [9]: 356 ng/g and 434 ng/g
- Plasma concentration [9]: 1280 ng/mL and 1950 ng/mL
- Kp at 4 h (male, ICR, mouse, brain and plasma, po, 30 mg/kg, ICR male mice, PO(30mg/kg), sampling time 4 h, individual animals, read-out: B/P ratio): 0.118
- Kp at 8 h (male, ICR, mouse, brain and plasma, po, 30 mg/kg, ICR male mice, PO(30mg/kg), sampling time 8 h, individual animals, read-out: B/P ratio): 0.286
- Kp at 12 h (male, ICR, mouse, brain and plasma, po, 30 mg/kg, ICR male mice, PO(30mg/kg), sampling time 12 h, individual animals, read-out: B/P ratio): 0.365
- Kp at 24 h (male, ICR, mouse, brain and plasma, po, 30 mg/kg, ICR male mice, PO(30mg/kg), sampling time 24 h, individual animals, read-out: B/P ratio): 0.237
- Kp at 36 h (male, ICR, mouse, brain and plasma, po, 30 mg/kg, ICR male mice, PO(30mg/kg), sampling time 36 h, individual animals, read-out: B/P ratio): 0.605
- Kp at 2 h (male, ICR, mouse, brain and plasma, po, 100 mg/kg, ICR male mice, PO(100mg/kg), sampling time 2 h, individual animals, read-out: B/P ratio): 0.171
- Kp at 4 h (male, ICR, mouse, brain and plasma, po, 100 mg/kg, ICR male mice, PO(100mg/kg), sampling time 4 h, individual animals, read-out: B/P ratio): 0.168
- Kp at 8 h (male, ICR, mouse, brain and plasma, po, 100 mg/kg, ICR male mice, PO(100mg/kg), sampling time 8 h, individual animals, read-out: B/P ratio): 0.2
- Kp at 24 h (male, ICR, mouse, brain and plasma, po, 100 mg/kg, ICR male mice, PO(100mg/kg), sampling time 24 h, individual animals, read-out: B/P ratio): 0.321
- concentration at 8 h (male, ICR, mouse, brain, po, 30 mg/kg, ICR male mice, PO(30mg/kg), sampling time 8 h, individual animals, read-out: Brain concentration): 1820 ng/g
- concentration at 12 h (male, ICR, mouse, brain, po, 30 mg/kg, ICR male mice, PO(30mg/kg), sampling time 12 h, individual animals, read-out: Brain concentration): 1000 ng/g
- concentration at 36 h (male, ICR, mouse, brain, po, 30 mg/kg, ICR male mice, PO(30mg/kg), sampling time 36 h, individual animals, read-out: Brain concentration): 30 ng/g
- concentration at 4 h (male, ICR, mouse, brain, po, 100 mg/kg, ICR male mice, PO(100mg/kg), sampling time 4 h, individual animals, read-out: Brain concentration): 5550 ng/g
- concentration at 8 h (male, ICR, mouse, brain, po, 100 mg/kg, ICR male mice, PO(100mg/kg), sampling time 8 h, individual animals, read-out: Brain concentration): 2460 ng/g
- concentration at 24 h (male, ICR, mouse, brain, po, 100 mg/kg, ICR male mice, PO(100mg/kg), sampling time 24 h, individual animals, read-out: Brain concentration): 427 ng/g
- concentration at 4 h (male, ICR, mouse, plasma, po, 30 mg/kg, ICR male mice, PO(30mg/kg), sampling time 4 h, individual animals, read-out: Plasma concentration): 7520 ng/mL
- concentration at 8 h (male, ICR, mouse, plasma, po, 30 mg/kg, ICR male mice, PO(30mg/kg), sampling time 8 h, individual animals, read-out: Plasma concentration): 6370 ng/mL
- concentration at 12 h (male, ICR, mouse, plasma, po, 30 mg/kg, ICR male mice, PO(30mg/kg), sampling time 12 h, individual animals, read-out: Plasma concentration): 2750 ng/mL
- concentration at 36 h (male, ICR, mouse, plasma, po, 30 mg/kg, ICR male mice, PO(30mg/kg), sampling time 36 h, individual animals, read-out: Plasma concentration): 49.6 ng/mL
- concentration at 2 h (male, ICR, mouse, plasma, po, 100 mg/kg, ICR male mice, PO(100mg/kg), sampling time 2 h, individual animals): 38800 ng/mL
- concentration at 4 h (male, ICR, mouse, plasma, po, 100 mg/kg, ICR male mice, PO(100mg/kg), sampling time 4 h, individual animals, read-out: Plasma concentration): 33100 ng/mL
- concentration at 8 h (male, ICR, mouse, plasma, po, 100 mg/kg, ICR male mice, PO(100mg/kg), sampling time 8 h, individual animals, read-out: Plasma concentration): 12300 ng/mL
- concentration at 24 h (male, ICR, mouse, plasma, po, 100 mg/kg, ICR male mice, PO(100mg/kg), sampling time 24 h, individual animals, read-out: Plasma concentration): 1330 ng/mL
- brain penetration (rodents (ICR mice), oral 30 mg/kg or 100 mg/kg, result in words): favorable brain penetration
